Test results as given in patent US12139488B2, “Pyrido[3,2-d]pyrimidine compounds uses thereof for treating a proliferative disease” (Universite de Montreal, priority 2021, dated 2024).

Legend:
[1] = test system: pERK and pMEK in RAS-mutant HCT-116 cells; assay: Immunoblot analysis of pERK and pMEK in HCT-116 cells; format: cell-based, human; settings: 1 h treatment, FIG. 2
Description: For immunoblotting analysis, 500,000 HCT-116 cells were plated in 1 mL of complete RPMI-1640 growth medium in 24-well flat-bottomed transparent dishes (Costar). Cells were maintained overnight at 37° C. under 5% CO2 before treatment with compounds' dilution series for one hour.
Cells were then washed once in PBS and lized in 250 μL of Igepal Lysis Buffer (50 mM Tris-HCl pH 7.5, 150 mM NaCl, 1% Igepal-CA630, 1 mM EDTA, 10% Glycerol) supplemented with Leupeptin, Aprotinin, PMSF, phosphatase inhibitor cocktail (Sigma) and Na3VO4 at 4° C. for 15 minutes with gentle rocking. Cell extracts were then cleared by centrifugation at 20,000 g at 4° C. for 10 minutes. Cleared lysates were then transferred on ice in fresh tubes and then boiled in sample loading buffer (100 mM Tris-HCl pH 6.8, 4% SDS, 0.2% bromophenol blue, 20% glycerol, 200 mM p-mercaptoethanol) for 5 minutes prior to fractionation by SDS-PAGE and transfer to nitrocellulose membranes (PALL). […]

[2] = test system: pERK in HCT-116 cells (KRAS G13D); assay: Phospho-ERK inhibition (AlphaLISA SureFire Ultra p-ERK 1/2), HCT116; format: cell-based, human; settings: RAS-mutant HCT116 cells, FIG. 1
Summary of the method: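 pERK1/2 (Thr202/Tyr204) AlphaLISA, 1 h cpd, 10 conc. 10 μM→0.33 nM, 0.5% DMSO, RPMI-1640 + 5% FBS. Trametinib = 100%, DMSO = 0%. IC50, 4-param fit.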

YMIN of pERK IC50 dose response curve (paradoxical induction of pERK signaling) [2]: ~−600%
SMILES: CCCS(=O)(=O)Nc1ccc(F)c(C(=O)c2c[nH]c3ncc(Cl)cc23)c1F [PLX4720, reference compound]
paradoxical induction of pERK or pMEK signaling (immunoblot) [1]: induces the pathway
